Test results taken from US8168221B2, “Composition 064” (AstraZeneca AB, priority 2007, dated 2012).

Experiments:
[1] = Compound (I) forced degradation study, aqueous buffer solutions protected from light; type: physicochemical; conditions: for Compound (I) formyl hydrazide, % w/w (24 hours) / Compound (I) hydrazide, % w/w (24 hours) / Compound (I), % w/w (24 hours) / Compound (I), % w/w (initial) / Compound (I) formyl hydrazide, % w/w (initial): protected from light; for Compound (I), % w/w (initial): 0.5 mg/mL
Procedure: (§1) The Compound (I), Compound (I) formyl hydrazide, and total impurities contents were determined using High Performance Liquid Chromatography HPLC. 10 μL sample was injected into a mobile phase comprising water/acetonitrile/formic acid in the ratios 900:100:2 (Eluent A)/400:600:2 (Eluent B), as defined by the gradient program in Table 1 below. Separation of impurities was performed using a column 15 cm long×4.6 mm internal diameter packed with Waters Symmetry C8 stationary phase having 3.5 μm particle size. […] “ND” in Tables 2 and 3 refers to “not determined”

[2] = Compound (I) forced degradation study, solutions exposed to light at room temperature; type: physicochemical
Procedure: as §1

COc1nc(C)cnc1NS(=O)(=O)c1cccnc1-c1ccc(-c2nnco2)cc1 [Compound (I), N-(3-methoxy-5-methylpyrazin-2-yl)-2-(4-[1,3,4-oxadiazol-2-yl]phenyl)pyridine-3-sulphonamide]
hydrolytic degradation (in words) ([1]; low and high pH): subject to hydrolytic degradation at low and high pH
Compound (I) formyl hydrazide, % w/w (24 hours) ([1]; pH 1.2, 37° C.): 32.16 % w/w
Compound (I) hydrazide, % w/w (24 hours) ([1]; pH 1.2, 37° C.): 47.34 % w/w
Compound (I), % w/w (24 hours) ([1]; pH 1.2, 37° C.): 0.89 % w/w
Compound (I), % w/w (initial) ([1]; pH 1.2, 37° C.): 96.69/ % w/w
Compound (I) formyl hydrazide, % w/w (initial) ([1]; pH 1.2, 37° C.): 1.58/ % w/w
Compound (I) formyl hydrazide, % w/w (24 hours) ([1]; pH 1.2, RT): 59.83 % w/w
Compound (I) hydrazide, % w/w (24 hours) ([1]; pH 1.2, RT): 13.87 % w/w
Compound (I), % w/w (24 hours) ([1]; pH 1.2, RT): 23.04 % w/w
Compound (I), % w/w (initial) ([1]; pH 1.2, RT): 97.57/ % w/w
Compound (I) formyl hydrazide, % w/w (initial) ([1]; pH 1.2, RT): 1.99/ % w/w
Compound (I) formyl hydrazide, % w/w (24 hours) ([1]; pH 3.0, 37° C.): 3.09 % w/w
Compound (I), % w/w (24 hours) ([1]; pH 3.0, 37° C.): 96.56 % w/w
Compound (I), % w/w (initial) ([1]; pH 3.0, 37° C.): 99.43/ % w/w
Compound (I) formyl hydrazide, % w/w (24 hours) ([1]; pH 3.0, RT): 1.66 % w/w
Compound (I) hydrazide, % w/w (24 hours) ([1]; pH 3.0, RT): <0.05 % w/w
Compound (I), % w/w (24 hours) ([1]; pH 3.0, RT): 84.70 % w/w
Compound (I), % w/w (initial) ([1]; pH 3.0, RT): 99.45/ % w/w
Compound (I) hydrazide, % w/w (24 hours) ([1]; pH 7.2, 37° C.): <0.05 % w/w
Compound (I), % w/w (24 hours) ([1]; pH 7.2, 37° C.): 99.17 % w/w
Compound (I), % w/w (initial) ([1]; pH 7.2, 37° C.): 98.73/ % w/w
Compound (I) hydrazide, % w/w (24 hours) ([1]; pH 7.2, RT): <0.05 % w/w
Compound (I), % w/w (24 hours) ([1]; pH 7.2, RT): 99.45 % w/w
Compound (I), % w/w (initial) ([1]; pH 7.2, RT): 99.14/ % w/w
Compound (I) formyl hydrazide, % w/w (24 hours) ([1]; pH 11.0, 37° C.): 4.16 % w/w
Compound (I) hydrazide, % w/w (24 hours) ([1]; pH 11.0, 37° C.): <0.05 % w/w
Compound (I), % w/w (24 hours) ([1]; pH 11.0, 37° C.): 94.50 % w/w
Compound (I), % w/w (initial) ([1]; pH 11.0, 37° C.): 99.17/ % w/w
Compound (I) formyl hydrazide, % w/w (24 hours) ([1]; pH 11.0, RT): 1.35 % w/w
Compound (I), % w/w (24 hours) ([1]; pH 11.0, RT): 94.21 % w/w
Compound (I), % w/w (initial) ([1]; pH 11.0, RT): 98.68/ % w/w
Compound (I) formyl hydrazide, % w/w (initial) ([1]; pH 11.0, RT): 0.07/ % w/w
Compound (I) formyl hydrazide, % w/w (24 hours) ([2]; pH 1.2, 24 hours): 16.35 % w/w
Compound (I) hydrazide, % w/w (24 hours) ([2]; pH 1.2, 24 hours): ND/0.32 % w/w
Compound (I), % w/w (24 hours) ([2]; pH 1.2, 24 hours): 82.33 % w/w
Compound (I) formyl hydrazide, % w/w (initial) ([2]; pH 1.2, initial): 1.39 % w/w
Compound (I), % w/w (initial) ([2]; pH 1.2, initial): 98.82 % w/w
Compound (I) formyl hydrazide, % w/w (24 hours) ([2]; pH 3.0, 24 hours): 0.30 % w/w
Compound (I), % w/w (24 hours) ([2]; pH 3.0, 24 hours): 95.76 % w/w
Compound (I) formyl hydrazide, % w/w (initial) ([2]; pH 3.0, initial): 0.05 % w/w
Compound (I), % w/w (initial) ([2]; pH 3.0, initial): 99.39 % w/w
Compound (I), % w/w (24 hours) ([2]; pH 7.2, 24 hours): 97.04 % w/w
Compound (I), % w/w (initial) ([2]; pH 7.2, initial): 98.78 % w/w
Compound (I) formyl hydrazide, % w/w (24 hours) ([2]; pH 11.0, 24 hours): 0.15 % w/w
Compound (I), % w/w (24 hours) ([2]; pH 11.0, 24 hours): 98.66 % w/w
Compound (I) formyl hydrazide, % w/w (initial) ([2]; pH 11.0, initial): < 0.05 % w/w
Compound (I), % w/w (initial) ([2]; pH 11.0, initial): 99.91 % w/w
